Measured values reported in paper PMC6938011, “Antiplasmodial profile of selected compounds from Malaria Box: in vitro evaluation, speed of action and drug combination studies” (Malaria Journal, 2019).
“Also recorded” adds a separate entry of the source. Read-outs that look alike come from different tables or passages of the source.

Columns and labels:
P. falciparum 3D7 strain [1] = assay: SYBR Green I inhibition assay for the asexual stages of P. falciparum; assay type: cell-based, Plasmodium falciparum; conditions: 72 h, read-out: IC50^Pf Average (confidence interval-95%)
Protocol: The P. falciparum 3D7 strain was kept in culture in a humidified incubator at 37 °C in RPMI-1640 medium with 25 mM NaHCO3, 25 mM HEPES (pH 7.4), 11 mM D-glucose, 3.67 mM hypoxanthine and 25 µg/mL gentamicin, supplemented with 0.5% (m/v) AlbuMAX II. The culture medium was changed daily, and the parasitaemia was maintained below 10% with 2.5% haematocrit in human erythrocytes.
The parasites were synchronized through sterile 5% (m/v) D-sorbitol treatment over 10 min at 37 °C for the enrichment of ring-stage parasites. The cultures were pelleted by centrifugation at 600×g over 5 min. The parasitaemia was determined by microscope analysis of thin blood smears stained with Giemsa 10% (v/v) after methanol fixation. The initial parasitaemia was calculated from 1000 red blood cells (RBCs), and cultures were diluted to 0.5% parasitaemia and 2% haematocrit by adding the appropriate volumes of erythrocytes and medium. Parasite aliquots of 180 µL were distributed into 96-well plates previously prepared with 20 µL aliquots of a tenfold concentrated compound. Negative and positive control wells corresponding to non-parasitized erythrocytes and parasite cultures in the absence of compounds were set in parallel. The DMSO concentration was maintained below 0.05% (v/v). The plates were incubated for 72 h at 37 °C in a humidified incubator with a gas mixture of 90% N2, 5% O2 and 5% CO2. After incubation, the culture medium was removed, and the cells were resuspended in 100 µL PBS buffer (116 mM NaCl, 10 mM Na2HPO4, 3 mM KH2PO4) and lysed with 100 µL lysis buffer (20 mM Tris base, 5 mM EDTA, 0.0008% (v/v) Triton X-100, 0.008% (m/v) saponin, pH 8.0) containing 0.002% (v/v) SYBR Green I. Plates were incubated at room temperature for 30 min, and the fluorescence corresponding to the parasitic density was determined using a SpectraMAX Gemini EM plate reader (Molecular Devices Corp., Sunnyvale, CA) (excitation at 485 nm, emission at 535 nm). The half maximal inhibitory concentration (IC50^Pf) was determined by non-linear regression analysis of the resulting concentration-response curve using the software Origin 2016 (OriginLab Corporation).

[2] = test system: Hepatocarcinoma cells (HepG2); assay: Cytotoxicity evaluation, neutral red assay; assay type: cell-based, human; conditions: HepG2, 72 h, read-out: IC50^HepG2, NR Average (confidence interval-95%)
Protocol: (§1) Hepatocarcinoma cells (HepG2) were cultivated in RPMI medium supplemented with 10% (v/v) fetal bovine serum and 0.2% (v/v) penicillin/streptomycin. The antibiotics were added to the medium to eliminate the potential interference of microbial contamination. Cells were cultivated at 37 °C and 5% CO2; the supplemented medium was changed every 2 days.
(§2) For the experimental procedures, cells were trypsinized and transferred to a 96-well plate at 30,000 cells per well and incubated at 37 °C overnight for cell adhesion. Then, serial dilutions of the inhibitor candidates were added to the plate. Cells without any compounds were used as positive growth controls. The plate was incubated at 37 °C and 5% CO2 for 72 h. After incubation, the highest compound concentration to be considered (highest concentration without precipitation) was observed by microscopy. Cytotoxicity was evaluated by two different methods. The first is a colorimetric assay based on metabolic cell activity in the presence of 3-(4,5-dimethylthiazol-2-yl)-2,5-diphenyltetrazolium bromide (MTT). Briefly, mitochondrial enzymes can convert the MTT dye into the purple insoluble compound formazan. To each well, 20 µL MTT at 5 mg/mL was added, followed by incubation at 37 °C for 3 to 5 h. After incubation, the supernatant was removed, and formazan crystals were solubilized in 100 µL DMSO. The absorbance, which is proportional to the number of viable cells, was determined using a SpectraMAX Plus 384 plate reader (Molecular Devices Corp., Sunnyvale, CA) (λ = 570 nm). The second method is based on the uptake of neutral red, a dye that is retained inside the lysosomes of viable cells. To each well, after removal of culture media, 200 µL neutral red medium 40 µg/mL was added, followed by incubation at 37 °C for 3 to 5 h. After incubation, supernatant was dispensed, and 200 µL 0.5% (v/v) formaldehyde in 1% (m/v) CaCl2 was added to remove excess of the dye for 5 min. Supernatant was dispensed, and 100 µL alcohol-acid solution (50% (v/v) ethanol, 1% (v/v) glacial acetic acid) was added, and the plate was stirred until a homogeneous solution was formed. The absorbance was determined using a SpectraMAX Plus 384 plate reader (Molecular Devices Corp., Sunnyvale, CA) (λ = 540 nm). For both methods, the half maximal inhibitory concentration (IC50^HepG2) was determined by non-linear regression analysis of the resulting concentration-response curve using the software Origin 2016 (OriginLab Corporation).

P. falciparum 3D7 strain [3] = test system: P. falciparum 3D7 strain; set-up: method as in PMID 23798988; conditions: reported potency of Malaria Box compounds ref 13, read-out: Reported IC50^Pf; cited from earlier work
P. falciparum [4] = conditions: in vitro ref 34; cited from earlier work
P. falciparum [5] = assay: Combination assays, isobologram analysis (FIC50 pairs); assay type: cell-based, Plasmodium falciparum; conditions: for Isobologram data, Additive: fraction of FIC50 pairs / Isobologram data, Additive: number of FIC50 pairs / Isobologram data, Antagonistic: number of FIC50 pairs / Isobologram data, Synergic: number of FIC50 pairs / Isobologram data, Antagonistic: fraction of FIC50 pairs: combination with artesunate; for Combination profile with artesunate: isobologram, IC50 equivalent ratios 1:4, 2:3, 1:1, 3:2, 4:1
Protocol: Combinations of anti-malarial candidates with artesunate, an artemisinin derivative, were tested in fixed molar ratios based on the individual IC50 values that were previously determined by the SYBR Green I assay. Traditionally, a line (isobole) of additivity is used to distinguish between additive, synergic, and antagonistic interaction profiles. […] Thus, a systematic consideration of additivity ranges was included in the isobologram analysis, as previously described by Grabovsky and Tallarida. Concentration-response curves of individual compounds were used in the calculation of each pair’s additivity range (area within the upper and lower limits in Figs. 4 and 5). Fractional inhibitory concentration (FIC50) pairs plotted as points inside the additivity range indicate the expected sum of each compound effect, while points above and below the range indicate antagonistic and synergic interactions, respectively. The selected inhibitors were combined with artesunate in the IC50 equivalent ratios of 1:4, 2:3, 1:1, 3:2 and 4:1 for the construction of the isobolograms.

[6] = test system: Hepatocarcinoma cells (HepG2); assay: Cytotoxicity evaluation, MTT assay; assay type: cell-based, human; conditions: HepG2, 72 h, read-out: IC50^HepG2, MTT Average (confidence interval-95%)
Protocol: as §1, §2

P. berghei NK65 strain = assay: In vivo suppressive parasite growth test against Plasmodium berghei; set-up: species or system Swiss outbred mice; conditions: 20 mg/kg, positive control, P. berghei-infected mice
Protocol: A suppressive parasite growth test was performed in mice infected with P. berghei NK65 strain (originally received from the New York University Medical School), as described previously, with some modifications. Briefly, adult Swiss outbred mice (20 ± 2 g weight) were intraperitoneally inoculated with 1 × 10^5 red blood cells infected with P. berghei. The infected mice were maintained together for at least 2 h and then randomized into groups of 5 animals per cage, which were subsequently administered 50 mg/kg of each compound diluted in 3% (v/v) DMSO by oral gavage daily for 3 days. Two control groups were used in parallel: one was treated with CQ (20 mg/kg) and the other was treated with the vehicle. Blood smears from mouse tails were prepared on days 5 and 7 post-infection and then fixed with methanol, stained with Giemsa 10% (v/v), and examined under the microscope.

[7] = test system: asexual intraerythrocytic stages of P. falciparum; assay: Speed of action studies (microscopy of thin blood smears); assay type: cell-based, Plasmodium falciparum; conditions: ring-stage parasites; for Parasite morphology during incubation: compound at tenfold the IC50, microscopy up to 36 h; for Speed of action: compound at tenfold the IC50, observed 0-36 h
Protocol: Parasites in thin blood smears were observed by microscopy after 0, 8, 16, 24 and 36 h of incubation.

| Compound | IC50 (P. falciparum 3D7 strain [3]) | Isobologram data, Additive: fraction of FIC50 pairs (P. falciparum [5]) | Isobologram data, Additive: number of FIC50 pairs (P. falciparum [5]) | Isobologram data, Antagonistic: number of FIC50 pairs (P. falciparum [5]) | Isobologram data, Synergic: number of FIC50 pairs (P. falciparum [5]) | Combination profile with artesunate (P. falciparum [5]) | IC50 (P. falciparum 3D7 strain [1]) | Parasite morphology during incubation [7] | Speed of action [7] | IC50 [2] | Isobologram data, Antagonistic: fraction of FIC50 pairs (P. falciparum [5]) | IC50 [6] | also measured |
| --- | --- | --- | --- | --- | --- | --- | --- | --- | --- | --- | --- | --- | --- |
| C[C@H]1[C@H](OC(=O)CCC(=O)O)O[C@@H]2O[C@@]3(C)CC[C@H]4[C@H](C)CC[C@@H]1[C@@]24OO3 [Artesunate, reference compound] | 0.008 µM | 100% | 15 | 0 | 0 | Additivity |  |  |  |  |  |  | IC50 (P. falciparum 3D7 strain [1]; Plasmodium falciparum): 0.017 µM; IC50 ([2]; Homo sapiens): 110 µM; Speed of action (literature) (P. falciparum [4]): fast; Combination profile with artesunate (P. falciparum [5]; listed as artesunate): additive; IC50 ([6]; Homo sapiens): 110 µM |
| CCN(CC)CCCC(C)Nc1ccnc2cc(Cl)ccc12 (stereo not shown) [Chloroquine, reference compound] |  |  |  |  |  |  |  |  |  |  |  |  | % of reduction of parasitaemia, day 5 after infection (P. berghei NK65 strain): 100%; % of reduction of parasitaemia, day 7 after infection (P. berghei NK65 strain): 100% |
| CN1CCN(c2ccc(Nc3c4ccccc4nc4ccccc34)cc2)CC1 [Compound 1] | 0.142 µM | 8% | 1 | 11 | 0 | antagonistic | 0.074 µM | pyknotic nuclei formation | Fast | 3.34 µM | 92% | 3.21 µM | Combination profile with artesunate (P. falciparum [5]; listed as 01): Antagonism |
| Brc1ccc(Nc2nc3ccccc3nc2Nc2ccc(Br)cc2)cc1 [Compound 3] | 1.06 µM | 38% | 5 | 8 | 0 |  | 0.34 µM | punctual shapes after 16 h | Fast | > 6.25 µM | 62% | 5.1 µM | Combination profile with artesunate (P. falciparum [5]; listed as 03): Antagonism |
| O=[N+]([O-])c1ccc(C=NNc2nc3ccccc3[nH]2)cc1 [Compound 4] | 0.142 µM | 8% | 1 | 12 | 0 |  | 0.44 µM | young trophozoites were observed after 36 h | slow-acting and Slow | > 6.25 µM | 92% | > 6.25 µM | Combination profile with artesunate (P. falciparum [5]; listed as 04): Antagonism |
| CCn1c(CN2CCN(Cc3ccccc3)CC2)nc2cc(NC(=O)c3cccs3)ccc21 [Compound 5] | 0.512 µM | 15% | 2 | 11 | 0 |  | 0.25 µM | punctual shapes after 16 h | fast-acting and Fast | > 100 µM | 85% | 90 µM | Combination profile with artesunate (P. falciparum [5]; listed as 05): Antagonism |
| O=C(Nc1ccc(C23CC4CC(CC(c5ccccc5)(C4)C2)C3)cc1)c1cccs1 [Compound 7] | 0.826 µM | 22% | 2 | 7 | 0 |  | 1 µM | punctual shapes after 16 h | fast-acting and Fast | > 25 µM | 78% | > 25 µM | Combination profile with artesunate (P. falciparum [5]; listed as 07): Antagonism |
| Fc1ccc2[nH]c3c(NCCCN4CCOCC4)ncnc3c2c1 [Compound 11] | 0.345 µM |  | 0 | 12 | 0 | antagonistic; also recorded: Antagonism | 1.6 µM | punctual shapes after 16 h | Fast | > 50 µM | 100% | > 50 µM |  |
